Laboratory results published in US20220227815A1, “COMPOSITIONS AND METHODS USEFUL IN TREATING BRAIN DISEASES” (University of Kansas, priority 2019, published 2022).
Where “and” joins values, the source holds several entries; their conditions need not be identical. Equal values may be shown once. Entries after “also recorded” stand apart in the source; their conditions may differ. Non-standard residues stand in square brackets, D forms with d. Residues, ends and D or L forms follow the SMILES beside them. ξ: configuration not given here. Thr(3ξ) = CC(O)[C@H](N)C(=O)O

Tests used:
[1] = system: blood-brain barrier (BBB); assay: In vivo brain delivery of IRdye800CW-IgG mAb, NIRF quantification in brain homogenates; conditions: C57BL/6 mice; for average amount of IgG mAb in the brain: IRdye800CW-IgG mAb 21.6 nmol/kg i.v. alone or with 13 μmol/kg peptide, 15 min circulation, n=3; for brain delivery of IgG mAb compared to control (IgG mAb alone): IgG mAb 21.6 nmol/kg + 13 μmol/kg peptide i.v.
Description: (§1) The activity of each peptide in enhancing blood-brain barrier (BBB) penetration was evaluated by delivering IRdye800CW donkey anti-goat IgG mAb in C57BL/6 mice; the amounts of mAb in the brain were determined using NIRF imaging. Each group contained 3 mice per group (n=3) with a mixture of male and female mice, selected randomly for each arm of the study. The injection solution was prepared by adding 600 μL PBS into 0.5 mg lyophilized IgG mAb; then, approximately 1.5 mg lyophilized peptide was added into the mixture yielding the injectable formulation. A 100 μL solution of a mixture containing IgG mAb (21.6 nmol/kg) along with 13 μmol/kg peptide of the present technology was administered via tail vein. As a control, 100 μL of IgG mAb alone was administered via i.v. route. After the delivered molecules had been circulating for 15 min, the mice were sacrificed; then, a mixture of PBS with 0.5% Tween20 was administered for cardiac perfusion to remove the blood and […] molecules into the brain microvessels. The brain and other organs such as lung, heart, spleen, liver, and kidney were harvested and rinsed with PBS. The isolated organs were scanned with Odyssey® CLx for mAb quantification.
The brain deposition of IgG mAb was also quantified by NIRF imaging in brain homogenates. The isolated brains were mechanically homogenized in 2.0 mL of PBS. To make the standard solutions, IRDye800CW IgG mAb stock solution (70 μg/mL) was prepared; it was then diluted with various amounts of PBS to make six different mAb concentrations. To generate a calibration curve, the brain homogenate (200 μL) was aliquoted out to a 96-well plate. 10 μL of each concentration of IgG mAb was added to three different wells of blank brain homogenates. The standard spiked homogenates were at a range of 10-200 ng/mL IgG mAb in brain homogenate. The wells were scanned using the Odyssey® CLx scanner, and the signal intensities vs. concentrations of mAb per gram of brain were used to generate a calibration curve.
(§2) The BBB modulatory activities of ADTC5 and HAV6 to enhance brain delivery of IRdyeR800CW-labeled lysozyme, albumin, IgG mAb, and fibronectin were compared in C57BL/6 mice. The proteins with or without 13 μmol/kg HAV6 or ADTC5 were administered via tail vein injection. For lysozyme, the delivered doses were 21.6 and 54 nmol/kg. For albumin, IgG mAb, and fibronectin, the dose used was 21.6 nmol/kg. Fifteen minutes after IgG mAb administration with or without a peptide of the present technology, the animals were sacrificed and PBS with 0.5% Tween-20 was administered for cardiac perfusion to remove the remaining protein in the BBB microvessels. The brain and other organs such as lung, heart, spleen, liver and kidney were harvested and rinsed with PBS. Protein depositions in the brain and other organs were quantified by NIRF imaging using an Odyssey CLx NIRF scanner.
(§3) A second quantification method was done using brain homogenates. In this case, the brains were homogenized in 2.0 mL PBS by mechanical disruption and 200 μL of homogenized brain (n=8) was aliquoted to a 96-well plate followed by quantification using the Odyssey CLx scanner. The signal intensity was compared to calibration curve and normalized to brain weight and homogenate volume.

[2] = Peripheral organ deposition of IRdye800CW-labeled proteins by NIRF imaging; assay type: in vivo, C57BL/6 mice; conditions: for IgG mAb deposition in other organs (liver, kidney, heart, spleen, lungs) compared to control: IgG mAb 21.6 nmol/kg + 13 μmol/kg peptide i.v., NIRF signal intensity, n=3
Description: as §1, §2

[3] = system: blood-brain barrier (BBB); assay: In vivo brain delivery of IRdye800CW-lysozyme (15 kDa); set-up: species or system C57BL/6 mice; conditions: for amount of lysozyme in the brain: IRdye800CW-lysozyme 54 nmol/kg i.v. alone or with 13 μmol/kg peptide, C57BL/6 mice
Description: Preparation of Stock and Standard Curves. The stock solution for IRDye800CW protein (i.e., lysozyme, 70 μg/mL) was prepared and stored at −80° C. The stock solution was later diluted with PBS to make the required standard solutions. To produce a standard calibration curve, 200 μL of blank brain homogenates was spiked with 10 μL standard solutions of various concentrations to yield a linear range from 0.5 to 50 ng/mL. The same method was employed for the sample's quality control (QC).
as §2, §3
(§4) Brain Perfusion. After euthanasia using CO2 chamber, mice were immediately subjected to cervical dislocation followed by removal of IRdye800CW-labeled protein from the brain capillaries using perfusion solution. In this case, a solution containing PBS with 0.2% Tween-20 was transcardially perfused to remove the remaining protein molecules in the brain endothelial microvessels. After perfusion, the brain was removed from the skull and subjected to capillary depletion.

[4] = system: blood-brain barrier (BBB); assay: In vivo brain delivery of IRdye800CW-albumin (65 kDa); conditions: IRdye800CW-albumin 21.6 nmol/kg i.v. alone or with 13 μmol/kg peptide, C57BL/6 mice
Description: as §2, §3, §4

[5] = system: blood-brain barrier (BBB); assay: In vivo brain delivery of IRdye800CW-fibronectin (220 kDa); set-up: species or system C57BL/6 mice; conditions: IRdye800CW-fibronectin 21.6 nmol/kg i.v. alone or with ADTC5 13 μmol/kg
Description: as §2, §3, §4

[6] = albumin 21.6 nmol/kg with 13 μmol/kg peptide, NIRF

## CC(C)[C@@H]1NC(=O)[C@H](C)NC(=O)[C@H](Cc2c[nH]cn2)NC(=O)[C@H](CO)NC(=O)[C@H](C(C)C)NC(=O)[C@@H]2CCCN2C(=O)[C@@H]2CCCN2C(=O)[C@H](C(C)O)NC1=O (stereo partly drawn) (cyclo(AV[Thr(3ξ)]PPVSH))
[1]
  average amount of IgG mAb in the brain: 15.7±0.8 pmol/g brain
  brain delivery of IgG mAb compared to control (IgG mAb alone): significantly better than in the PBS control; also recorded: significant difference
[2]
  IgG mAb deposition in other organs (liver, kidney, heart, spleen, lungs) compared to control: significant increases in deposition of IgG mAb in liver, kidney, spleen, and lungs; also recorded: significant differences in the IgG mAb signal in lung, kidney, spleen, and liver

## CC(=O)N[C@@H](CO)C(=O)N[C@@H](Cc1c[nH]cn1)C(=O)N[C@@H](C)C(=O)N[C@H](C(=O)N[C@@H](CO)C(=O)N[C@@H](CO)C(N)=O)C(C)C [HAV6, acetyl-SHAVSS-NH2] (Ac-SHAVSS-NH2)
[1]
  average amount of IgG mAb in the brain: 3.4±0.4 pmol/g brain and 3.42±0.5 pmol/g brain and 3.4 ± 0.5 pmol/g brain
  brain delivery of IgG mAb compared to control (IgG mAb alone): did not enhance; also recorded: not able to deliver mAb
[2]
  IgG mAb deposition in other organs (liver, kidney, heart, spleen, lungs) compared to control: no significant difference
[2]; IgG mAb 21.6 nmol/kg with 13 μmol/kg peptide, compared to control
  distribution of mAb into liver: about the same
[2]; [6]
  deposition of albumin in the spleen compared to control: enhanced
  distribution of albumin into the liver compared to control: significantly enhanced
[2]; lysozyme 54 nmol/kg with 13 μmol/kg peptide, NIRF
  lysozyme deposition in the kidney: followed by the HAV6-treated group
[3]
  amount of lysozyme in the brain: 8.3±2.5 pmol/g brain
[3]; lysozyme 21.6 nmol/kg with 13 μmol/kg peptide
  brain delivery of lysozyme compared to lysozyme alone: no significant improvement
[4]
  amount of albumin in the brain: 15.5±3.1 pmol/g brain

## CC(C)[C@@H]1NC(=O)[C@H](C)NC(=O)[C@H](Cc2c[nH]cn2)NC(=O)[C@H](CO)NC(=O)[C@H](CO)NC(=O)[C@H](CO)NC1=O [HAVN1, cyclo(1,6)SHAVSS] (cyclo(AVSSSH))
[1]
  average amount of IgG mAb in the brain: 8.6±0.5 pmol/g brain
  brain delivery of IgG mAb compared to control (IgG mAb alone): significantly enhanced; also recorded: significant difference
[2]
  IgG mAb deposition in other organs (liver, kidney, heart, spleen, lungs) compared to control: no significant difference

## CC(C)[C@@H]1NC(=O)[C@H](C)NC(=O)[C@H](Cc2c[nH]cn2)NC(=O)[C@H](CO)NC(=O)[C@H](CO)NC1=O [HAVN2, cyclo(1,5)SHAVS] (cyclo(AVSSH))
[1]
  average amount of IgG mAb in the brain: 8.8±0.6 pmol/g brain
  brain delivery of IgG mAb compared to control (IgG mAb alone): significantly enhanced; also recorded: significant difference
[2]
  IgG mAb deposition in other organs (liver, kidney, heart, spleen, lungs) compared to control: no significant difference

## CC(=O)N[C@H](C(=O)N1CCC[C@H]1C(=O)N1CCC[C@H]1C(=O)N[C@H](C(=O)N[C@@H](CO)C(=O)N[C@@H](Cc1c[nH]cn1)C(=O)N[C@@H](C)C(=O)N[C@H](C(N)=O)C(C)C)C(C)C)C(C)O (stereo partly drawn) [linear ADTHAV]
[1]
  average amount of IgG mAb in the brain: 11.8±0.5 pmol/g brain
  brain delivery of IgG mAb compared to control (IgG mAb alone): significantly better than in the PBS control; also recorded: significant difference
[2]
  IgG mAb deposition in other organs (liver, kidney, heart, spleen, lungs) compared to control: significant effects on the distribution of IgG mAb in the heart and kidney; also recorded: significance differences in the IgG mAb signal intensities for kidney and heart

## Albumin [reference compound]
[4]
  amount of albumin in the brain: 11.8 ± 1.0 pmol/g brain
[4]; listed as albumin
  amount of albumin in the brain: 11.8±1.0 pmol/g brain

## Lysozyme [reference compound]
[3]
  amount of lysozyme in the brain: 0 ± 0 pmol/g brain
[3]; listed as lysozyme
  amount of lysozyme in the brain: below the detection limits

## fibronectin [reference compound]
[5]
  NIRF signal of fibronectin in brain homogenates: 33.026±2.080 ×10^3 A.U.
